Experimental data from patent US6423692B2 (priority 1997, dated 2002).

Experiments:
[1] = test system: 9L-Neo cells; assay: Incorporation of ara-C into DNA; type: cell-based, rat; conditions: one million cells
Method: (§1) Three and 6 h later, labeled cells were harvested, and digested by the addition of 2.5 mg proteinase-K (Boehringer-Mannheim, Indianapolis, Ind.) in 2 ml of 10 mM Tris (pH 7.4), 1 mM EDTA, and 0.5% SDS. Subsequent purification was accomplished by phenol extraction. The nucleic acids were precipitated, centrifuged, treated with RNase A and then assayed for radioactivity [Major, P. D., et al., Proc. Natl. Acad. Sci. USA 78:3235-3239 (1981)].

[2] = test system: 9L-WT cells; assay: Incorporation of ara-C into DNA; type: cell-based, rat; conditions: one million cells
Method: as §1

[3] = test system: 9L-Neo cells; assay: cells; type: cell-based; conditions: Rattus norvegicus, 120 h, read-out: Cytotoxicity, cell viability
Method: Surviving cells were then counted 3 days later. Data represent means+s.e.m. […] Data represent the means +s.e.m. (bars) of five separate experiments.
In order to determine whether the dCK/ara-C-mediated bystander effect is dependent on direct cell-to-cell contact, 9L-Neo cells were plated on the bottom of a microliter transwell either directly with 9L-dCK cells or separated from the 9L-dCK cells by a 3-μm porous membrane. Significant cytotoxicity (38%+2% of control) was also seen in the 9L-Neo cells that were directly mixed in the bottom compartment with the 9L-dCK cells, compared with minimal cytotoxicity (81% of control) when the 9L-Neo cells were separated from the 9L-dCK cells by the membrane (FIG. 3b). The difference in cytotoxicity between cell-to-cell and membrane separated cell killing was statistically significant; P<0.01.

[4] = test system: 9L-Neo tumors; assay: Growth of intradermal tumors in syngeneic rat; type: in vivo, Fischer 344 rats
Method: Implantation of intradermal tumors. […] Tumor volume was calculated by multiplying the values of three perpendicular diameters. Statistical analysis was performed using an unpaired, two-tailed, Student's t-test.
Treatment of animals. […] Oncol.

[5] = test system: 9L cells transduced by Ad.CMVdCK; assay: Cytotoxic assay after adenoviral transduction; type: cell-based; conditions: Rattus norvegicus, 24 h
Method: (§2) FIGS. 6A and 6B show in vitro sensitivity to ara-C following transduction with dCK-expressing or control virus. 9L cells (2×10^3) were infected as follows: (FIG. 6A) Ad.CMVβgal at MOI 0 (●), 50 (▪), 500 ( ? ); and (FIG. 6B) Ad.CMVdCK at MOI 0 (◯), 50 (□) and 500 ( ? ). […] Cytotoxicity was determined by staining with methylene blue. […] The difference in cell killing was highly statistically significant for cells treated with Ad.CMVdCK at an MOI of 500 (P<0.00 1).
(§3) Cytotoxic assays were performed to determine whether 9L transduction by Ad.CMVdCK confers ara-C sensitivity. Forty-eight hours after transduction, 9L cells were exposed to various concentrations of ara-C for 24 hours. Forty-eight hours later, cells were assayed for cytotoxic effects.

[6] = test system: 9L cells transduced by Ad.CMVβgal; assay: Cytotoxic assay after adenoviral transduction; type: cell-based; conditions: Rattus norvegicus; Ad.CMVβgal at different MOIs, 48 h after transduction, 24 hours ara-C
Method: as §2, §3

[7] = test system: intracerebral 9L glioma; type: in vivo, Fischer 344 rats
Method: 9L-Neo or 9L-dCK cells (2×10^4) were injected into right caudate nucleus of the brain. Four days later, viral vehicle or 2×10^8 PFU of recombinant adenoviruses were injected into the tumors stereotaxically using the same route of previous 9L inoculation (V).
Four days later, viral vehicle, or 2×10^8 PFU (plaque-forming units) of either the Ad.CMVβgal or Ad.CMVdCK vectors were stereotactically injected into the tumors.
(§4) Implantation of intracerebral tumors. 9L-Neo and 9L-dCK cells were stereotaxically implanted into the right caudate nucleus of Fischer 344 rats using a modification of the method of Kobayashi [Kobayashi, N. et al. J. Neurosurg. […] In brief, male Fischer 344 rats (150-175 g) were anesthetized and placed in a small animal stereotaxic frame (Kopf Instruments). Tumor cells (2×10^4/10 μl) were injected with a 701 Hamilton syringe over 30 s to a depth of 4.5 mm, 1.3 mm posterior and 4 mm to the right of the bregma. […] Statistical significance of survival between different groups was assessed using log rank analysis of Kaplan Meier survival curves.

[8] = test system: 9L-Neo tumors; assay: Survival of rats with intracerebral tumors; conditions: intracerebral 9L-Neo tumors, ara-C 200 mg/kg; P<0.02
Method: 9L-Neo or 9L-dCK cells (2×10^4) were stereotaxically injected into right caudate nucleus of the brain.
In a second experiment, intracerebral tumors were established and rat survival was measured. Secondary to restricted intracranial volume, the survival of rats in this model represents a very reproducible parameter for determining the growth of transplanted tumors or tumor cell lines in vivo.
as §4

SMILES: Nc1ccn([C@@H]2O[C@H](CO)[C@@H](O)[C@@H]2O)c(=O)n1 [ara-C, 1-β-D-arabinofuranosyl-cytosine]
- Incorporation of ara-C into DNA ([1]; 3 hours, 10^−7 M [3H]ara-C): 0.502 ± 0.198 pmol
- Incorporation of ara-C into DNA ([1]; 3 hours, 10^−8 M [3H]ara-C): 0.067 ± 0.007 pmol
- Incorporation of ara-C into DNA ([1]; 6 hours, 10^−7 M [3H]ara-C): 1.926 ± 0.259 pmol
- Incorporation of ara-C into DNA ([1]; 6 hours, 10^−8 M [3H]ara-C): 0.403 ± 0.101 pmol
- Incorporation of ara-C into DNA ([2]; 3 hours, 10^−7 M [3H]ara-C): 0.359 ± 0.061 pmol
- Incorporation of ara-C into DNA ([2]; 3 hours, 10^−8 M [3H]ara-C): 0.054 ± 0.001 pmol
- Incorporation of ara-C into DNA ([2]; 6 hours, 10^−7 M [3H]ara-C): 1.905 ± 0.652 pmol
- Incorporation of ara-C into DNA ([2]; 6 hours, 10^−8 M [3H]ara-C): 0.305 ± 0.094 pmol
- viability at 0.2 µM [3]: 38%
- Tumor size ([4]; intradermal 9L-Neo tumors, ara-C 200 mg/kg s.c. every 8 h for 2 days, two courses): 9556+2272 mm^3
- Growth of 9L-Neo tumors, ara-C versus PBS ([4]; intradermal, ara-C 200 mg/kg): no significant difference in the growth
- IC50 ([5]; Ad.CMVdCK MOI 0, 24 hours ara-C): 300 nM
- IC50 ([5]; Ad.CMVdCK MOI 50, 24 hours ara-C): 190 nM
- IC50 ([5]; Ad.CMVdCK MOI 500, 24 hours ara-C, P<0.001): 80 nM
- IC50 [6]: ~300 nM
- Survival of animals treated with Ad.CMVdCK and ara-C ([7]; 2×10^8 PFU Ad.CMVdCK intratumoral, versus viral vehicle or Ad.CMVβgal and ara-C, P<0.0005): survived much longer
- Survival of vehicle and Ad.CMVβgal injected animals treated with ara-C ([7]; versus PBS-treated animals, P<0.02): longer than that seen in the PBS-treated animals
- Prolongation of median survival compared with PBS-treated animals [8]: 8 days
